Data from PMC10947197, “Acid‐Resistant BODIPY Amino Acids for Peptide‐Based Fluorescence Imaging of GPR54 Receptors in Pancreatic Islets” (Angewandte Chemie (International Ed. in English), 2023).

Key:
[1] = Photostability under continuous light irradiation; type: physicochemical; conditions: 50 µM, buffer, 37°C, continuous irradiation (Xe lamp, 20 W), λexc 450 nm, λem 510 nm, n=6
Experimental: S u p p l emen t ary Figure 7. Nor m alized f luoresc ence em is s ion of Trp-BODIPY PLUS ( 50 µ M , buf f er ) at 37° C und er c o nt inu ous l ight ir r adi at ion ( Xe l am p, 20 W ) . λexc: 450 nm; λem: 510 nm . V alues pr es ent e d as m eans ±S D ( n= 6).
Supplementary Figure 8 . Linear r egr es s ions of t he p eak a bs or b anc e ar ea ( m A U) of T rp-BO DI PY PLUS in DMSO (re d) an d PBS (c ont a ini ng ≤ 1% DM S O , bl ue) at d if f er ent c onc ent r at i ons of t he ami no ac id. Valu es wer e det ermi ned by HPLC-MS us ing UV det ec t ion at 51 0 nm . R2 v alues : 0. 99 9 ( r ed) , 0. 99 4 ( blu e) .
(also on this page, place not known: time (min) Normalized photostability Normalized fluorescence emission (50 µM, buffer) 37°C under continuous light irradiation (Xe lamp, W) nm; nm. Values presented means±SD (n=6). µM) Peak area (mAU) DMSO) Supplementary 8. regressions the peak absorbance area (mAU) Trp-BODIPY DMSO (red) and (containing ≤1% DMSO, blue) different concentrations the amino acid. Values were determined using detection 510 nm. values: 0.999 (red), 0.994 (blue).)

[2] = Fluorogenic behavior in phosphatidylcholine liposome suspensions; type: physicochemical; conditions: PBS vs phosphatidylcholine liposome suspensions; λexc 450 nm, λem 510 nm
Experimental: Figure 1 a) Chemical structure of the Fmoc‐protected Trp‐BODIPY PLUS amino acid for general peptide synthesis. b) Fluorescence emission spectra of Trp‐BODIPY PLUS (25 μM) in phosphate buffer saline (PBS) suspensions with increasing content of phosphatidylcholine liposomes. λ exc: 450 nm. Inset) UV‐irradiated pictograms of Trp‐BODIPY PLUS in hydrophilic (bottom) and hydrophobic (top) environments. c) Peptide sequences synthesized with Trp‐BODIPY and Trp‐BODIPY PLUS, their biological targets, solid supports, protected amino acids and purities after SPPS. RA: Rink Amide, TG: TentaGel, CTC: chlorotrityl, PS: polystyrene,^[a] not determined due to degradation of BODIPY. d) Synthetic scheme and structures of KP‐10 analogues with Trp‐BODIPY PLUS instead of the native Trp (peptide 7) or at the N‐terminal end (peptide 8).
BODIPY PLUS (10 µM) in phosph ate buffer salin e (PBS, white bars) an d phosp hat idy lcho lin e li posom e susp ensi ons (gr ey bars). λ exc: 45 0 nm; λem: 51 0 nm.
V alues pr es ent e d as m ea ns ±S E M ( n= 3) .
Tr p-BODIPY P LU S (-20 °C, solid)
Tr p-BODIPY P LU S (-20 °C, DMSO)
S u p p l emen t ary F i gu re 6 . HP LC tr ac es of T r p-B O DI P Y P LUS aft er 5 m ont hs st or age in t he f r eez er as po wder ( t op) and as 5 mM DMSO s olut i ons ( bot t om ). […]
Sp ectro sco p y mea su rem en ts. […]

Fluorogenic behavior (in words) [2]: strong fluorogenic behavior
Structure (SMILES): CC1=CC(C)=[N+]2C1=C(c1cccc(-c3[nH]c4ccccc4c3C[C@H](NC(=O)OCC3c4ccccc4-c4ccccc43)C(=O)O)c1)c1c(C)cc(C)n1[B-]2(C#N)C#N [Trp-BODIPY PLUS]
Photostability (in words) [1]: suitable solubility and photo‐ and chemical stability for long‐term storage
